From patent US20230147257A1 (DONG-A ST CO., LTD., priority 2020, published 2023)

target: T1, AhR (Homo sapiens, UniProt P35869); experiment: In vitro assay 1: XRE-luciferase reporter assay, antagonism in human cell line (HepG2); assay type: cell-based; conditions: not given
T1 construct: host or cells: HepG2
T1 sequence (P35869 11-848): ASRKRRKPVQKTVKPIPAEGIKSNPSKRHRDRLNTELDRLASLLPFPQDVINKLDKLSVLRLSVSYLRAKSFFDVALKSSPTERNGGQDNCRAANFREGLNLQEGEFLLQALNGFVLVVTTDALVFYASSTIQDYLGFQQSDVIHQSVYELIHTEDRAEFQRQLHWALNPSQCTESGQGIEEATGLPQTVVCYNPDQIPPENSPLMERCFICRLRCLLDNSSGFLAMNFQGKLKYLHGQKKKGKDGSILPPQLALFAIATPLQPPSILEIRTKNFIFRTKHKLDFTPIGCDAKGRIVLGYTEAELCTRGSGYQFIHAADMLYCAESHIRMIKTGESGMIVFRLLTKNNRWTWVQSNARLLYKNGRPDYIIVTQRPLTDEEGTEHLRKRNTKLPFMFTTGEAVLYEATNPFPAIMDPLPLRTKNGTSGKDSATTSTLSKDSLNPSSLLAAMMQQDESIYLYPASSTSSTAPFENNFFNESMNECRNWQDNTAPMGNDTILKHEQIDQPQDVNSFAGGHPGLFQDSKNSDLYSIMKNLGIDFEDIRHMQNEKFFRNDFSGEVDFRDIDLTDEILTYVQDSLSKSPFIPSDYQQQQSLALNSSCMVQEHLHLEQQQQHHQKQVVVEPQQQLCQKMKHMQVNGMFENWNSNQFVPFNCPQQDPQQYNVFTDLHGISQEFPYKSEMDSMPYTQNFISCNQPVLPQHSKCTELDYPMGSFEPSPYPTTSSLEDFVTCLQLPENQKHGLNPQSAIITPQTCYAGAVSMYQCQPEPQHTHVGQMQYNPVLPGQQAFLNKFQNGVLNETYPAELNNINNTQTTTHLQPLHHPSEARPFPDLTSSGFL
Description: In Vitro XRE-Luciferase Reporter Assay (In Vitro Assay 1, 2, 3)
AhR activation leads the induction of target gene expression such as CYP1A1 and CYP1B1 by AhR binding to AhR-responsive DNA elements also known as xenobiotics responsive elements (XRE). The assay for measuring AhR activity herein is the luciferase assay using cell lines transfected with luciferase reporter plasmid containing XREs at the upstream of the reporter gene. Cells transfected with XRE-luciferase reporter (XRE-Luc) plasmid drive luciferase activity reflecting activation and inhibition of AhR in the cells. In addition to transfection with XRE-reporter vector, cells were co-transfected with Nano-luciferase reporter gene construct (Nano-Luc) containing constitutively active promoter as internal control. Kynurenine (an endogenous AhR agonist) was used to stimulate cells to test antagonistic properties of the compounds. The half-maximal inhibitory concentration (IC50) or half-maximal effective concentration (EC50) value was calculated using nonlinear regression (four parameters) with Prism8.0 software (GraphPad).
In Vitro Assay 1: Antagonism in Human Cell Line
HepG2 (human hepatoma cell line) cell line with a XRE-luciferase reporter either transiently or stably (Invivogen) were plated in complete medium and incubated at 37° C. in a CO2 incubator. After 24 hours, cells were treated with kynurenine (50* or 200 μM) alone (negative control) or with test compounds for 6 hours. Luciferase activity was measured with a commercial kit such as the Promega Luciferase kit or other reagents for measuring luciferase activity. Relative luciferase activity (Firefly/Nano-Luc) was used to calculate IC50 values. The relative luciferase activity was further normalized with kynurenine alone group as the maximum control and the vehicle group as the minimum control. (IC50 values are grouped as A, B, C and D, whereby A: IC50<0.01 μM; B: 0.01<IC50<0.1 μM; C: 0.1<IC50<1.0 μM; D: IC50>1.0 μM)

| SMILES | IC50 [nM] |
| --- | --- |
| CCOP(=O)(OCC)OCC(C)n1cnc2c(-c3cccnc3)nc(-c3ccc(Cl)cc3)cc2c1=O (stereo not drawn) [Example 47, 2-(6-(4-chlorophenyl)-4-oxo-8-(pyridin-3-yl)pyrido[3,4-d]pyrimidin-3(4H)-yl)propyl diethyl phosphate] | 10 to 100 |

same assay, conditions: HepG2 XRE-luciferase, cells treated with kynurenine 50 μM (*), 6 hours; read-out: Assay 1: AhR-Luc Human Antagonism (IC50)

| SMILES | IC50 [nM] |
| --- | --- |
| CC(CO)n1cnc2c(-c3ccc(C(F)(F)F)cc3)nc(-c3ccc(C(F)(F)F)cc3)cc2c1=O (stereo not drawn) [Example 6, 3-(1-hydroxypropan-2-yl)-6,8-bis(4-(trifluoromethyl)phenyl)pyrido[3,4-d]pyrimidin-4(3H)-one] | 100 to 1000 |
| CC(CO)n1cnc2c(-c3ccc(Cl)cc3)nc(-c3cccnc3)cc2c1=O (stereo not drawn) [Example 5, 8-(4-chlorophenyl)-3-(1-hydroxypropan-2-yl)-6-(pyridin-3-yl)pyrido[3,4-d]pyrimidin-4(3H)-one] | > 1000 |
| CC(O)Cn1cnc2c(-c3cnn(C)c3)nc(-c3cnn(C)c3)cc2c1=O (stereo not drawn) [Example 11, 3-(2-hydroxypropyl)-6,8-bis(1-methyl-1H-pyrazol-4-yl)pyrido[3,4-d]pyrimidin-4(3H)-one] | 100 to 1000 |
| CCC(CO)n1cnc2c(-c3cnn(C)c3)nc(-c3ccc(C(F)(F)F)cc3)cc2c1=O (stereo not drawn) [Example 54, 3-(1-hydroxybutan-2-yl)-8-(1-methyl-1H-pyrazol-4-yl)-6-(4-(trifluoromethyl)phenyl)pyrido[3,4-d]pyrimidin-4(3H)-one] | > 1000 |
| Cn1cc(-c2cc3c(=O)n(C4CCCC(O)C4)cnc3c(-c3cnn(C)c3)n2)cn1 (stereo not drawn) [Example 2, 3-(3-hydroxycyclohexyl)-6,8-bis(1-methyl-1H-pyrazol-4-yl)pyrido[3,4-d]pyrimidin-4(3H)-one] | 100 to 1000 |
| CC(O)Cn1cnc2c(-c3cnn(C)c3)nc(-c3ccc(Cl)cc3)cc2c1=O (stereo not drawn) [Example 13, 6-(4-chlorophenyl)-3-(2-hydroxypropyl)-8-(1-methyl-1H-pyrazol-4-yl)pyrido[3,4-d]pyrimidin-4(3H)-one] | < 10 |

same assay, conditions: HepG2 XRE-luciferase, cells treated with kynurenine 200 μM (no *), 6 hours; read-out: Assay 1: AhR-Luc Human Antagonism (IC50)

| SMILES | IC50 [nM] |
| --- | --- |
| CC(=O)NCC(C)n1cnc2c(-c3cccnc3)nc(-c3ccc(N4CCOCC4)cc3)cc2c1=O (stereo not drawn) [Example 92, N-(2-(6-(4-morpholinophenyl)-4-oxo-8-(pyridin-3-yl)pyrido[3,4-d]pyrimidin-3(4H)-yl)propyl)acetamide] | 10 to 100 |
| CC(=O)NCC(C)n1cnc2c(-c3cccnc3)nc(-c3ccc(C(F)(F)F)cc3)cc2c1=O (stereo not drawn) [Example 86, N-(2-(4-oxo-8-(pyridin-3-yl)-6-(4-(trifluoromethyl)phenyl)pyrido[3,4-d]pyrimidin-3(4H)-yl)propyl)acetamide] | 10 to 100 |
| O=c1c2cc(-c3ccc(Cl)cc3)nc(-c3cccnc3)c2ncn1[C@@H]1CCCC[C@@H]1O [Example 19] | < 10 |
| O=c1c2cc(-c3ccc(Cl)cc3)nc(-c3cccnc3)c2ncn1C1CCCC(O)C1 (stereo not drawn) [Example 63, 6-(4-chlorophenyl)-3-(3-hydroxycyclohexyl)-8-(pyridin-3-yl)pyrido[3,4-d]pyrimidin-4(3H)-one] | < 10 |
| O=c1c2cc(-c3ccc(Cl)cc3)nc(-c3cccnc3)c2ncn1C1CCC(O)CC1 (stereo not drawn) [Example 58, 6-(4-chlorophenyl)-3-((1s,4s)-4-hydroxycyclohexyl)-8-(pyridin-3-yl)pyrido[3,4-d]pyrimidin-4(3H)-one] | < 10 |
| CS(=O)(=O)CCn1cnc2c(-c3cccnc3)nc(-c3ccc(N4CCOCC4)cc3)cc2c1=O [Example 79, 3-(2-(methylsulfonyl)ethyl)-6-(4-morpholinophenyl)-8-(pyridin-3-yl)pyrido[3,4-d]pyrimidin-4(3H)-one] | < 10 |
| O=c1c2cc(-c3ccc(Cl)cc3)nc(-c3cccnc3)c2ncn1[C@H]1CCCC[C@H]1O [Example 21] | > 1000 |
| O=c1c2cc(-c3ccc(C(F)(F)F)cc3)nc(-c3cccnc3)c2ncn1CC(O)C(F)(F)F (stereo not drawn) [Example 25, 8-(pyridin-3-yl)-3-(3,3,3-trifluoro-2-hydroxypropyl)-6-(4-(trifluoromethyl)phenyl)pyrido[3,4-d]pyrimidin-4(3H)-one] | > 1000 |
| CC(C)C(CO)n1cnc2c(-c3cccnc3)nc(-c3ccc(C(F)(F)F)cc3)cc2c1=O (stereo not drawn) [Example 42, 3-(1-hydroxy-3-methylbutan-2-yl)-8-(pyridin-3-yl)-6-(4-(trifluoromethyl)phenyl)pyrido[3,4-d]pyrimidin-4(3H)-one] | > 1000 |
| O=c1c2cc(-c3ccc(C(F)(F)F)cc3)nc(-c3cccnc3)c2ncn1[C@@H]1CC[C@H](O)C1 [Example 29, 3-((1R,3S)-3-hydroxycyclopentyl)-8-(pyridin-3-yl)-6-(4-(trifluoromethyl)phenyl)pyrido[3,4-d]pyrimidin-4(3H)-one] | < 10 |
| O=c1c2cc(-c3ccc(Cl)cc3)nc(-c3cccnc3)c2ncn1CC(O)C(F)(F)F (stereo not drawn) [Example 24, 6-(4-chlorophenyl)-8-(pyridin-3-yl)-3-(3,3,3-trifluoro-2-hydroxypropyl)pyrido[3,4-d]pyrimidin-4(3H)-one] | < 10 |
| Cn1cc(-c2nc(-c3ccc(C(F)(F)F)cc3)cc3c(=O)n([C@H]4CC[C@@H](O)C4)cnc23)cn1 [Example 35, 3-((1S,3R)-3-hydroxycyclopentyl)-8-(1-methyl-1H-pyrazol-4-yl)-6-(4-(trifluoromethyl)phenyl)pyrido[3,4-d]pyrimidin-4(3H)-one] | < 10 |
| CC(C)C(CO)n1cnc2c(-c3cccnc3)nc(-c3ccc(Cl)cc3)cc2c1=O (stereo not drawn) [Example 41, 6-(4-chlorophenyl)-3-(1-hydroxy-3-methylbutan-2-yl)-8-(pyridin-3-yl)pyrido[3,4-d]pyrimidin-4(3H)-one] | > 1000 |
| Cn1cc(-c2nc(-c3ccc(C(F)(F)F)cc3)cc3c(=O)n([C@@H]4CC[C@H](O)C4)cnc23)cn1 [Example 31, 3-((1R,3S)-3-hydroxycyclopentyl)-8-(1-methyl-1H-pyrazol-4-yl)-6-(4-(trifluoromethyl)phenyl)pyrido[3,4-d]pyrimidin-4(3H)-one] | < 10 |
| Cn1cc(-c2nc(-c3ccc(Cl)cc3)cc3c(=O)n(-c4cccc(O)c4)cnc23)cn1 [Example 26, 6-(4-chlorophenyl)-3-(3-hydroxyphenyl)-8-(1-methyl-1H-pyrazol-4-yl)pyrido[3,4-d]pyrimidin-4(3H)-one] | 10 to 100 |
| Cn1cc(-c2nc(-c3ccc(Cl)cc3)cc3c(=O)n([C@H]4CCCC[C@H]4O)cnc23)cn1 [Example 20, 6-(4-chlorophenyl)-3-((1S,2R)-2-hydroxycyclohexyl)-8-(1-methyl-1H-pyrazol-4-yl)pyrido[3,4-d]pyrimidin-4(3H)-one] | > 1000 |
| O=c1c2cc(-c3ccc(C(F)(F)F)cc3)nc(-c3cccnc3)c2ncn1C(CO)CO [Example 69, 3-(1,3-dihydroxypropan-2-yl)-8-(pyridin-3-yl)-6-(4-(trifluoromethyl)phenyl)pyrido[3,4-d]pyrimidin-4(3H)-one] | < 10 |
| O=c1c2cc(-c3ccc(C(F)(F)F)cc3)nc(-c3cccnc3)c2ncn1[C@H]1CC[C@@H](O)C1 [Example 33, 3-((1S,3R)-3-hydroxycyclopentyl)-8-(pyridin-3-yl)-6-(4-(trifluoromethyl)phenyl)pyrido[3,4-d]pyrimidin-4(3H)-one] | < 10 |
| CC(CNS(C)(=O)=O)n1cnc2c(-c3cccnc3)nc(-c3ccc(N4CCOCC4)cc3)cc2c1=O (stereo not drawn) [Example 91, N-(2-(6-(4-morpholinophenyl)-4-oxo-8-(pyridin-3-yl)pyrido[3,4-d]pyrimidin-3(4H)-yl)propyl)methanesulfonamide] | < 10 |
| Cn1cc(-c2nc(-c3ccc(Cl)cc3)cc3c(=O)n(CC(O)C(F)(F)F)cnc23)cn1 (stereo not drawn) [Example 23, 6-(4-chlorophenyl)-8-(1-methyl-1H-pyrazol-4-yl)-3-(3,3,3-trifluoro-2-hydroxypropyl)pyrido[3,4-d]pyrimidin-4(3H)-one] | < 10 |
